# Test results published in ChEMBL document CHEMBL6109110, “Novel cationic dihydropyrrol-2-one compounds as antimicrobial agents and quorum sensing inhibitors” (Bioorg Med Chem, 2025).
# Calls of active or inactive are those of the source. The rule behind the calls is not given here.
# What was measured:
# [1] = target: T1, Transcriptional activator protein LasR (Pseudomonas aeruginosa (strain ATCC 15692 / PAO1 / 1C / PRS 101 / LMG12228)) (UniProt P25084); test: Inhibition of LasR quorum sensing system in Pseudomonas aeruginosa MH602 expressing PlasB::gfp assessed as reduction in GFP expression at 16 uM incubated for 15 hrs by fluorescence microplate reader analysis relative to control
# T1 sequence (whole entry): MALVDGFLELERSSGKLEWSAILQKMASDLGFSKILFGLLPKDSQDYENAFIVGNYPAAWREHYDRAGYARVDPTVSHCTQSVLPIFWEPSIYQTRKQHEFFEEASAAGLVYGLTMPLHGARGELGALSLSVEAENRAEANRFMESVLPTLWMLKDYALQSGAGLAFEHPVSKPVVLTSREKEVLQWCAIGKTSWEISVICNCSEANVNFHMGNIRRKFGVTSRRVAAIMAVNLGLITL
# Escherichia coli = test: Antibacterial activity against Escherichia coli K12 measured after 18 to 24 hrs by broth microdilution method; assay type: functional; conditions: time 18-24 hrs
# Staphylococcus aureus = test: Antibacterial activity against Staphylococcus aureus isolate 38 measured after 18 to 24 hrs by broth microdilution method; assay type: functional; conditions: time 18-24 hrs
# Pseudomonas aeruginosa [2] = test: Antibacterial activity against Pseudomonas aeruginosa PAO1 measured after 18 to 24 hrs by broth microdilution method; assay type: functional; conditions: time 18-24 hrs
# [3] = Inhibition of quorum sensing system in Pseudomonas aeruginosa PAO1 assessed as reduction in pyocyanin production at 64 uM measured after 48 hrs relative to control
# Pseudomonas aeruginosa [4] = test: Growth inhibition of Pseudomonas aeruginosa MH602 expressing PlasB::gfp at 16 uM relative to control; assay type: functional; conditions: read-out: GI
# [5] = Hemolytic activity in horse RBC assessed as hemolysis at 500 uM measured after 4 hrs relative to control; assay type: toxicity, cell-based, Equus caballus, Erythrocyte; conditions: horse red blood cells, read-out: Activity
# [6] = Hemolytic activity in horse RBC measured after 4 hrs; assay type: toxicity, cell-based, Equus caballus, Erythrocyte; conditions: horse red blood cells
Structure (SMILES),inhibition [1],MIC90 (Escherichia coli),MIC90 (Staphylococcus aureus),MIC90 (Pseudomonas aeruginosa [2]),inhibition [3],inhibition of growth at 16 µM (Pseudomonas aeruginosa [4]),"hemolysis at 4 h, 500 µM [5]",HC50 at 4 h [6]
C=C1C(c2ccc(Cl)cc2)=CC(=O)N1CCSC(=N)N,40.8%,> 250 µM,125 µM,> 250 µM,–,–,–,–
C=C1C(c2ccc(F)cc2)=CC(=O)N1CCSC(=N)N,73.4%,250 µM,250 µM,> 250 µM,70%,16%,–,–
C=C1C(c2ccc(Br)cc2)=CC(=O)N1CCSC(=N)N,57.1%,32 µM,16 µM,125 µM,–,–,22%,> 500 µM
C=C1C(c2ccc(F)cc2)=CC(=O)N1CC[Se]C(=N)N,64.5%,250 µM,64 µM,> 250 µM,–,–,–,–
C=C1C(c2ccc(Br)cc2)=CC(=O)N1CC[Se]C(=N)N,69.4%,125 µM,64 µM,> 250 µM,70%,–,–,–
C=C1C(c2ccccc2)=CC(=O)N1CCC[Se]C(=N)N,51.5%,> 250 µM,250 µM,> 250 µM,–,–,–,–
C=C1C(c2ccc(Br)cc2)=CC(=O)N1CCCSC(=N)N,48.3%,64 µM,64 µM,250 µM,–,< 20%,–,–
C=C1C(c2ccccc2)=CC(=O)N1CCSC(=N)N,9.5%,> 250 µM,> 250 µM,> 250 µM,> 60%,> 20%,–,–
C=C1C(c2ccc(F)cc2)=CC(=O)N1CCC[Se]C(=N)N,41.9%,250 µM,250 µM,> 250 µM,–,–,–,–
C=C1C(c2ccc(Cl)cc2)=CC(=O)N1CC[Se]C(=N)N,72.8%,125 µM,64 µM,> 250 µM,–,15%,–,> 500 µM
C=C1C(c2ccc(Cl)cc2)=CC(=O)N1CCC[Se]C(=N)N,56.2%,125 µM,64 µM,> 250 µM,–,–,–,> 500 µM
C=C1C(c2ccc(Cl)cc2)=CC(=O)N1CCCSC(=N)N,53.1%,64 µM,64 µM,250 µM,70%,–,–,–
C=C1C(c2ccccc2)=CC(=O)N1CCCSC(=N)N,0%,> 250 µM,125 µM,> 250 µM,–,> 20%,–,–
O=C1C=C(Br)/C(=C/Br)O1,62.5%,–,–,–,–,–,–,–
C=C1C(c2ccc(Br)cc2)=CC(=O)N1CCC[Se]C(=N)N,53.2%,64 µM,32 µM,250 µM,–,–,–,> 250 µM
C=C1C(c2ccccc2)=CC(=O)N1CC[Se]C(=N)N,30.5%,> 250 µM,> 250 µM,> 250 µM,–,–,–,–
C=C1C(c2ccc(F)cc2)=CC(=O)N1CCCSC(=N)N,59.9%,125 µM,64 µM,250 µM,–,–,–,> 500 µM

# Further lines, with some results ahead:
inhibition [1],MIC90 (Escherichia coli),MIC90 (Staphylococcus aureus),MIC90 (Pseudomonas aeruginosa [2]),inhibition [3],Structure (SMILES),inhibition of growth at 16 µM (Pseudomonas aeruginosa [4]),"hemolysis at 4 h, 500 µM [5]",HC50 at 4 h [6]
0%,125 µM,32 µM,> 250 µM,inactive,C=C1C(c2ccc(Br)cc2)=CC(=O)N1CCC[n+]1ccn(C)c1,–,–,> 31 µM
14.6%,> 250 µM,> 250 µM,> 250 µM,inactive,C=C1C(c2ccc(F)cc2)=CC(=O)N1CCC[n+]1ccn(C)c1,–,–,–
31.4%,> 250 µM,> 250 µM,> 250 µM,inactive,C=C1C(c2ccc(F)cc2)=CC(=O)N1CC[n+]1ccn(C)c1,–,–,–
17.3%,> 250 µM,250 µM,> 250 µM,inactive,C=C1C(c2ccc(Cl)cc2)=CC(=O)N1CCC[n+]1ccn(C)c1,–,–,–
17.6%,> 250 µM,> 250 µM,> 250 µM,inactive,C=C1C(c2ccccc2)=CC(=O)N1CCC[n+]1ccn(C)c1,–,–,–
0%,250 µM,64 µM,> 250 µM,inactive,C=C1C(c2ccc(Br)cc2)=CC(=O)N1CC[n+]1ccn(C)c1,–,–,–
23.4%,> 250 µM,250 µM,> 250 µM,inactive,C=C1C(c2ccc(Cl)cc2)=CC(=O)N1CC[n+]1ccn(C)c1,–,–,–
14.4%,250 µM,250 µM,> 250 µM,inactive,C=C1C(c2ccccc2)=CC(=O)N1CC[n+]1ccn(C)c1,–,–,–
